From PubChem BioAssay AID1549 (Sanford-Burnham Center for Chemical Genomics, 2009) come the findings set out here.

Calls of active or inactive are those of the source. How the calls were made is not given here. Some results are limits rather than exact numbers.

The target in this assay is Influenza A virus M2 proton channel (A/TW/4845/1999 H1N1). The experiment in a line: NMR binding screen, influenza A virus M2 proton channel, Kd (AID 1549). As to conditions: M2 protein.
Turning to `O=C(CSc1nnc2ccccn12)N1CCOCC1`, the Kd was > 4 mM (inactive).

Take `O=C1O[C@H](C(O)CO)C(O)=C1O` (some centres undefined): the Kd was > 4 mM (inactive).

`O=c1c(-c2ccco2)[n+]([O-])c2ccccc2n1O`: the Kd is > 4 mM (inactive).

For the compound `Cc1cc(C(=O)NC2=NCCS2)cs1`, the Kd is > 4 mM (inactive).

Take `CCc1c(C)n([O-])c2c([n+]1=O)CCC2`: the Kd is > 4 mM (inactive).

Regarding `O=C(O)C1CSC2(CCCCC2)N1` (centres undefined), the Kd was > 4 mM (inactive).

As for `CC(=O)Nc1nc(C)nc(-c2ccccc2)c1C(C)=O`, the Kd was > 4 mM (inactive).

On to `Cn1ncc(C(=O)O)c1-c1ccccc1`, for which the Kd was > 4 mM (inactive).

In the case of `Cc1nn(-c2ccccc2)nc1CN`, the Kd was > 4 mM (inactive).

Consider `CN(Cc1nc2ccccc2n1C)C(=O)c1cccs1`, for which the Kd is > 4 mM (inactive).

In the case of `CC1(c2ccncc2)NC(=O)NC1=O` (centres undefined), the Kd was > 4 mM (inactive).

`Cc1cc(C(=O)Nc2ccc3c(c2)OCO3)cs1`: the Kd is > 4 mM (inactive).

Turning to `O=C(O)c1cc2ccccc2s1`, the Kd was > 4 mM (inactive).

With `O=C(O)c1ccc2[nH]c3c(c2c1)CSCC3`, the Kd is > 4 mM (inactive).

Consider `NC1=NC(=O)/C(=C\c2ccco2)S1`, for which the Kd was > 4 mM (inactive).

Consider `O=C1NC(=S)N/C1=C\c1ccccc1F`, for which the Kd was > 4 mM (inactive).

As to `CCCCCCCCCCCCCCC(C(=O)OC)C(O)(CC(=O)OC)C(=O)OC` (centres undefined), the Kd was > 4 mM (inactive).

As to `CN(C)S(=O)(=O)c1ccc(NC=O)cc1`, the Kd was > 4 mM (inactive).

`COc1c2ccoc2cc2oc(C)cc(=O)c12`: the Kd was > 4 mM (inactive).

Consider `CN1CCOc2cc(C(=O)O)ccc21`, for which the Kd is > 4 mM (inactive).

For the compound `NS(=O)(=O)c1ccc(NC(=O)c2cccs2)cc1`, the Kd is > 4 mM (inactive).

Turning to `C[C@H]1O[C@@H](O[C@H]2[C@@H](O)C[C@H](O[C@H]3[C@@H](O)C[C@H](O[C@H]4CC[C@]5(C)C6CC[C@]7(C)[C@@H](C8=CC(=O)OC8)CC[C@]7(O)C6CC[C@@H]5C4)O[C@@H]3C)O[C@@H]2C)C[C@H](O)[C@@H]1O` (some centres undefined), the Kd is > 4 mM (inactive).

As to `NC(=O)c1ccc(N=Cc2ccc[nH]2)cc1`, the Kd is > 4 mM (inactive).

For the compound `O=C(COc1ccccc1O)NCCO`, the Kd is > 4 mM (inactive).

Regarding `CC(=O)OC[C@@]1(O)C[C@@]23CCC4c5ccoc5CC[C@]4(C)C2CC[C@@H]1C3` (some centres undefined), the Kd is > 4 mM (inactive).

In the case of `COc1cc(C(=S)N2CCCC2)cc(Cl)c1O`, the Kd is > 4 mM (inactive).

As for `Cn1cccc1C(=O)NS(=O)(=O)c1ccccc1Cl`, the Kd is > 4 mM (inactive).

On to `OC[C@H]1O[C@@H](Oc2ccc(O)cc2)[C@H](O)[C@@H](O)[C@@H]1O`, for which the Kd is > 4 mM (inactive).

In the case of `O=C(O)C1CC(=O)N(CCc2ccc(Cl)cc2)C1` (centres undefined), the Kd was > 4 mM (inactive).

For the compound `COCc1nc(-c2cc(Br)ccc2OC)no1`, the Kd is > 4 mM (inactive).

On to `Clc1ccc(SCCn2cncn2)cc1`, for which the Kd was > 4 mM (inactive).

Take `N#Cc1ccccc1CSc1ccccn1`: the Kd was > 4 mM (inactive).

As for `O=C1C(=O)N(CNc2ncccn2)c2ccccc21`, the Kd is > 4 mM (inactive).

Regarding `O=C1c2ccccc2C(=O)N1/N=C/c1ccc[nH]1`, the Kd was > 4 mM (inactive).

With `COc1cc2c(cc1OC)[C@@]13CCN4CC5=CCOC6CC(=O)N2C1[C@H]6[C@H]5C[C@H]43` (some centres undefined), the Kd was > 4 mM (inactive).

Consider `O=C1CC[C@]23/C=C/C(=O)NCCCCNCCCNC(=O)/C=C/c4ccc(c2c4)O[C@@H]3C1`, for which the Kd is > 4 mM (inactive).

In the case of `C=C1CCC2C(CC2(C)C)C(=O)CCC1O` (centres undefined), the Kd was > 4 mM (inactive).

Turning to `Cc1nn(C)c(Cl)c1S(=O)(=O)N1CCOCC1`, the Kd was > 4 mM (inactive).

For the compound `COc1ccc(C(=O)O)cc1OC`, the Kd is > 4 mM (inactive).

Turning to `Nc1nc(N)nc(N2C(=O)c3ccccc3C2=O)n1`, the Kd was > 4 mM (inactive).

Take `NC(CCC(=O)Nc1ccc([N+](=O)[O-])cc1)C(=O)O` (centres undefined): the Kd is > 4 mM (inactive).

Take `CC1(C)C(=O)[C@@H]2C[C@@]3(O)C4=CC(=O)O[C@@H](c5ccoc5)[C@]4(C)CCC3C(C)(C2=O)[C@H]1CC(=O)O` (some centres undefined): the Kd was > 4 mM (inactive).

As to `Clc1ccc(-c2noc(CN3CCCC3)n2)cc1`, the Kd was > 4 mM (inactive).

For `CCOC12NC(=O)CC(=O)N1C(c1ccccc1)=CS2` (centres undefined), the Kd was > 4 mM (inactive).

With `Nc1ccc(Oc2ccccc2)nc1`, the Kd was > 4 mM (inactive).

Take `Cc1ccc2cc(C(=O)O)ccc2n1`: the Kd was > 4 mM (inactive).

Turning to `NC(=O)C(=O)NCc1ccc(Cl)cc1`, the Kd is > 4 mM (inactive).

On to `Nc1ccc2c(c1)OCCO2`, for which the Kd is > 4 mM (inactive).

Turning to `CN1CCC(O)N1C(=O)c1ccccc1O` (centres undefined), the Kd is > 4 mM (inactive).

Turning to `Cc1n[nH]c(=S)n(/N=C/c2cccs2)c1=O`, the Kd is > 4 mM (inactive).

Turning to `COc1cccc(C(=O)N2CCOCC2)c1`, the Kd was > 4 mM (inactive).

Consider `Cc1cc(=O)c2c(O)c(C)c(O)cc2o1`, for which the Kd was > 4 mM (inactive).

In the case of `CC(=O)NC1=NN(c2ccccc2)C(=O)C1`, the Kd is > 4 mM (inactive).

Regarding `Cc1cc(O)c(NC(=O)c2ccco2)cc1C`, the Kd was > 4 mM (inactive).

Regarding `Cc1cc(C(=O)Nc2sc(C)c(C)c2C#N)c(C)o1`, the Kd was > 4 mM (inactive).

As for `O=C1CSC(=S)N1N1C(=O)C2C3C=CC(C3)C2C1=O` (centres undefined), the Kd was > 4 mM (inactive).

For the compound `Cc1n[nH]c(C)c1CN`, the Kd was > 4 mM (inactive).

For the compound `O=c1c(O)c(-c2ccccc2)oc2ccccc12`, the Kd is > 4 mM (inactive).

Turning to `NC(=O)c1ccc(-c2csnn2)cc1`, the Kd is > 4 mM (inactive).

With `O=C1Nc2ccc(S(=O)(=O)NCCO)c3cccc1c23`, the Kd was > 4 mM (inactive).

Turning to `CC1CCCN(C/C(O)=C(\C#N)c2nc3ccccc3[nH]2)C1` (centres undefined), the Kd is > 4 mM (inactive).

In the case of `O=C(CO)N/N=C/c1ccccc1F`, the Kd was > 4 mM (inactive).

Take `O=c1c(O)c(-c2ccccc2)oc2cc(O)ccc12`: the Kd is > 4 mM (inactive).

In the case of `Cc1[nH]n(-c2ccccc2)c(=O)c1[N+](=O)[O-]`, the Kd was > 4 mM (inactive).

Regarding `O=C(/C=C/c1ccccc1)NC1CCS(=O)(=O)C1` (centres undefined), the Kd is > 4 mM (inactive).

As for `O=C1c2ccccc2C(=O)N1OCc1ccccc1`, the Kd is > 4 mM (inactive).

Turning to `COc1ccc(CN2CCOCC2)c(C)c1C`, the Kd was > 4 mM (inactive).

Turning to `O=C(Nn1cnnc1)c1cc2c(s1)CCCC2`, the Kd is > 4 mM (inactive).

For the compound `O=C(c1ccc(Cl)c(F)c1F)N1CCCC1`, the Kd was > 4 mM (inactive).

Turning to `O=C(c1cc(-c2ccccc2)on1)N1CCCC1`, the Kd is > 4 mM (inactive).

As for `COc1cc(O)c(C(=O)c2ccccc2)cc1O`, the Kd was > 4 mM (inactive).

Turning to `Cc1cc(C)n2nc(N)nc2n1`, the Kd was > 4 mM (inactive).

Turning to `CC1(C)C(=O)C=C[C@@]2(C)C1C[C@@H](O)[C@]1(C)C2CC[C@@]2(C)[C@H](c3ccoc3)OC(=O)[C@H]3O[C@]321` (some centres undefined), the Kd was > 4 mM (inactive).

Take `NCc1ccc2sccc2c1`: the Kd was > 4 mM (inactive).

As for `CC(=O)Nc1cc(O)cc(O)c1`, the Kd was > 4 mM (inactive).

For the compound `CN1C(=O)/C(=C/c2ccc(O)cc2O)SC1=S`, the Kd was > 4 mM (inactive).

Consider `COc1ccc(C)cc1S(N)(=O)=O`, for which the Kd is > 4 mM (inactive).

As for `NC1CCN(Cc2ccccc2)CC1`, the Kd is > 4 mM (inactive).

On to `OC(c1ccccc1)c1ccccn1` (centres undefined), for which the Kd is > 4 mM (inactive).

On to `Cc1nc(-c2cccc(-c3noc(C)n3)c2)no1`, for which the Kd is > 4 mM (inactive).

`CNS(=O)(=O)c1cccs1`: the Kd is > 4 mM (inactive).

`Cc1cc2c(N)cccc2nn1`: the Kd was > 4 mM (inactive).

On to `COc1cc(C(C)=O)ccc1OC(=O)N1CCOCC1`, for which the Kd is > 4 mM (inactive).

As for `O=C(O)c1sccc1-n1cccc1`, the Kd is > 4 mM (inactive).

`Cn1c(=O)cc(N2CCCCC2)[nH]c1=O`: the Kd is > 4 mM (inactive).

For the compound `COCCOc1nc2ccccc2nc1C`, the Kd was > 4 mM (inactive).

`Nc1cc(F)nc(F)n1`: the Kd was > 4 mM (inactive).

Turning to `CC1(NC(=O)NCc2ccccc2)CCS(=O)(=O)C1` (centres undefined), the Kd was > 4 mM (inactive).

On to `COc1cc2c(cc1OC)C1(O)C(=O)c3ccc(O)c(C(=O)O)c3OC1CO2` (centres undefined), for which the Kd is > 4 mM (inactive).

For the compound `Nc1c(F)c(F)nc(F)c1F`, the Kd was > 4 mM (inactive).

In the case of `CN1C(=O)N(C)C2NC(=O)NC21` (centres undefined), the Kd is > 4 mM (inactive).

In the case of `FC(F)(F)c1cc(-c2ccco2)nc(N2CCOCC2)n1`, the Kd was > 4 mM (inactive).

Take `COc1ccc(-c2nc(C)sc2CC(=O)O)cc1`: the Kd was > 4 mM (inactive).

For the compound `O=C1CC(=O)N(c2cccc(Cl)c2)N1`, the Kd was > 4 mM (inactive).

For the compound `O=C1NC(=O)C(Cc2ccccc2)C(=O)N1`, the Kd was > 4 mM (inactive).

For the compound `NC12CC3CC(C1)CC(CC(=O)O)(C3)C2`, the Kd is > 4 mM (inactive).

Regarding `Nc1ncnc(NC2CCS(=O)(=O)C2)c1[N+](=O)[O-]` (centres undefined), the Kd was > 4 mM (inactive).

As to `c1ccc(-c2noc(-c3cccnc3)n2)nc1`, the Kd was > 4 mM (inactive).

Take `O=C(Nc1ccccc1C(F)(F)F)c1cnccn1`: the Kd was > 4 mM (inactive).

On to `CS(=O)(=O)NC1CCN(Cc2ccccc2)CC1`, for which the Kd was > 4 mM (inactive).

`CN(C)c1nc(N)nc(-c2nc3ccccc3s2)n1`: the Kd is > 4 mM (inactive).

`O=C1N=c2ccccc2=C1c1sc(=S)[nH]c1O`: the Kd is > 4 mM (inactive).

Regarding `COC(=O)Cc1cc(=O)n(-c2nc3ccccc3s2)[nH]1`, the Kd is > 4 mM (inactive).

For the compound `Nc1cccc(NC(=O)c2cccs2)c1`, the Kd is > 4 mM (inactive).
